In US8236359B2, “Use of phytoecdysones in the preparation of a composition for acting on the metabolic syndrome” (Institut Biophytis SAS, priority 2007, dated 2012):

How the values were obtained:
[1] = tested on: male mice C57 BL/6; experiment: Effect of phytoecdysones on mice subjected to a fat (lard, inductor) diet for three weeks; assay type: in vivo, mice (Mus musculus line C57BI6)
Procedure: A test is carried out for studying the effect of phytoecdysones on mice subjected to a fat diet for three weeks
The fat diet or inductor diet consists in supplying large amounts of fat matter in the form of lard. The mice selected for this study are male mice C57 BL/6, 6-weeks old at the beginning of this inductor diet. Such mice are a preferred study model for analyzing the impact of the quinoa extract enriched with phytoecdysones according to the invention on the physiological parameters of the metabolic syndrome.
The inductor diet is a diet enriched with lard.
(§1) The 24 mice of each series have been subjected to a diet, such as detailed in the table 2, for three weeks and have been treated at the same time with the pure molecule, or a quinoa extract enriched up to 1.6% (2.24% the last treatment week for the control series) or 7% of 20-hydroxyecdysone (20E). The concentration of 20-hydroxyecdysone is adjusted to 40 mg per kg of food.
(§2) While taking account of the amount of food ingested on average by the mice, the administered dose of 20E corresponds in the three treatments to 5 mg of 20E per kg of the body weight and per day. The food is supplied in excess, three times a week, for both diets and the three treatments. On average, 40 g of food are supplied for each cage and per day, i.e. 6.5 g of food for each mouse and per day.
(§3) The table 2 below indicates in more detail the composition of the food diet to which the mice are subjected.
(§4) At the time of the sacrifice, the weight of the mice (Bwt), as well as the weight of the liver, the epididymis adipose tissue (EAT) and the subcutaneous adipose tissue (SCAT) are measured.
(§5) Cells of the epididymis adipose tissue are taken for carrying out a count and a morphological analysis.

[2] = tested on: male mice C57 BL/6; experiment: Effect of phytoecdysones on mice subjected to a normal control diet; assay type: in vivo, mice (Mus musculus line C57BI6)
Procedure: At the same time, another test is carried out for studying the effect of these same phytoecdysones on mice which have not been subjected to a fat diet, which is considered as a normal control diet.
as §1, §2, §3, §4, §5

Question: For `CC(C)(O)CC[C@@H](O)[C@](C)(O)[C@H]1CC[C@@]2(O)C3=CC(=O)[C@@H]4C[C@@H](O)[C@@H](O)C[C@]4(C)[C@H]3CC[C@]12C` [pure molecule, 20-hydroxyecdysone], which mode of the distribution of adipocyte diameters ([1]; FIG. 5, lard control about 70) is on record?
Answer: 60 µm

Question: What about the maximum adipocyte diameter of the distribution ([1]; FIG. 5, lard control up to 110) of the same compound?
Answer: 90 µm

Question: And the “effect on adipocyte diameter” value ([1]; epididymis adipose tissue cells, FIG. 4)?
Answer: reduces the adipocyte sizes in a significant manner

Question: What about the “obesity / adiposity induced by hyperlipidical and hypercalorific diet (conclusion)” value ([1]; gonad and subcutaneous tissue) of the same compound?
Answer: avoid a development of the an obesity

Question: What about the “decrease of the adiposity, gonad (epididymis) adipose tissue (% EAT)” value ([1]; three weeks, 5 mg 20E/kg/day, versus untreated lard-diet mice, FIG. 2) of the same compound?
Answer: 50%

Question: What about the “effect in non obese animals with a normal diet (conclusion)” value [2] of the same compound?
Answer: no effect

Question: What about the “adiposity, gonad (epididymis) adipose tissue (% EAT)” value ([2]; three weeks, 5 mg 20E/kg/day, versus untreated mice, FIG. 2) of the same compound?
Answer: does not modify the adiposity
